Data from patent US4847247A, “Penicillin derivatives as anti-inflammatory and antidegenerative agents” (Merck & Co., Inc., priority 1986, dated 1989).
Where two headings read alike, the source gives them in different places.

Biological target: T1, Human Polymorphonuclear Leukocyte Elastase (Homo sapiens, UniProt P08246)
T1 construct: Crude extract of human polymorphonuclear leukocytes (PMN) containing elastase activity; endogenous in cells; host or cells: human polymorphonuclear leukocytes (crude extract)
T1 sequence (P08246 30-247 limits assumed): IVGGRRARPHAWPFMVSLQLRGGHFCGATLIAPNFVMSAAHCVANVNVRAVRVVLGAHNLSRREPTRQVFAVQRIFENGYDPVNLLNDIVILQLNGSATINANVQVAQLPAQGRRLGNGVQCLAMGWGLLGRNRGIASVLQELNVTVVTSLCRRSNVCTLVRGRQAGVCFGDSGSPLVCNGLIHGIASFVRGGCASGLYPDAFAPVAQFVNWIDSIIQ
Assay: Inhibition of human polymorphonuclear leukocyte (granulocyte) elastase via hydrolysis of Boc-AAPAN
Format: biochemical
Description: Enzyme assay for the Inhibition of Human Polymorphonuclear Leukocyte Elastase Via Hydrolysis of N-t-Boc-alanyl-alanyl-prolylalanine-p-nitroanilide
0.05M TES (N-tris[hydroxymethyl]methyl-2-amino-ethanesulfonic acid) buffer, pH 7.5.
0.2 mM N-t-Boc-alanyl-alanyl-prolyl-alanine-p-nitroanilide (Boc-AAPAN).
To prepare substrate, the solid (m.w. 550) was first dissolved in 10.0 ml DMSO. Buffer at pH 7.5 was then added to a final volume of 100 ml.
Crude extract of human polymorphonuclear leukocytes (PMN) containing elastase activity.
Inhibitors (cephalosporin sulfoxide esters) to be tested dissolved in DMSO just before use.
To 1.0 ml of 0.2 mM Boc-AAPAN in a cuvette, 0.01-0.1 ml of DMSO with or without inhibitor was added. After mixing, a measurement was taken at 410 mμ to detect any spontaneous hydrolysis due to of test compound. 0.05 Milliliters of PMN extract was then added and the αOD/minute at 410 mμ was measured and recorded. Beckman model 35 spectrophotometer was used.
The elastase activity in the crude PMN extract may vary from one preparation to another. A control of each new batch is run, and the volume added in the assay procedure is adjusted according to activity.

[1] = crude human PMN extract, 0.2 mM Boc-AAPAN, pH 7.5, 410 mμ, 2 minutes after zero time, read-out: IC50 (dosage for 50% inhibition of the enzyme activity) (converted)

Row | Compound | IC50 [1] | further results
1 | CO[C@H]1C(=O)N2[C@@H](C(=O)OCC(=O)OC(C)(C)C)C(C)(C)S(=O)(=O)[C@H]12 [6α-OCH3 / 2 / OCH2 COOtBu] | 7.95 µM | 
2 | CC1(C)S[C@@H]2[C@@H](COC(=O)NCc3ccccc3)C(=O)N2[C@H]1C(=O)OCc1ccccc1 [6α-CH2 O(CO)NH(BZ) / 0 / OBZ] | 11 µM | 
3 | CN(Cc1ccc(C(=O)OC(C)(C)C)cc1)C(=O)[C@@H]1N2C(=O)[C@H](NC(=O)C(F)(F)F)[C@H]2S(=O)(=O)C1(C)C [6α-CF3 (CO)NH / 2 / N(CH3)BZ(p-COOtBu)] | 1.28 µM | 
4 | CC1(C)[C@H](C(=O)OCc2ccccc2)N2C(=O)[C@@H](NC(=O)C(F)(F)F)[C@H]2S1(=O)=O [6β-CF3 CONH / 2 / OBZ] |  | IC50: 4.6 µM
5 | COC(=O)[C@@H]1N2C(=O)[C@H](OC)[C@H]2S(=O)(=O)C1(C)C [6α-OCH3 / 2 / OCH3] | 72.1 µM | 
6 | CC1(C)S[C@@H]2C(OC(=O)Cc3ccccc3)C(=O)N2[C@H]1C(=O)OCc1ccccc1 (some centres unmarked) [(BZ)COO / 0 / OBZ] |  | IC50 (read-out: IC50 (dosage for 50% inhibition of the enzyme activity), crude human PMN extract, 0.2 mM Boc-AAPAN, pH 7.5, 410 mμ, 2 minutes after zero time): 47 µM
7 | CCC1(N(C)C(=O)C(F)(F)F)C(=O)N2C1[S+]([O-])C(C)(C)C2C(=O)OCc1ccccc1 (stereo not drawn) [β-CF3 CON(CH3) / α-C2 H5 / 1 / OBZ] | 43.4 µM | 
8 | CC[C@@]1(NC(=O)C(F)(F)F)C(=O)N2[C@@H](C(=O)OCc3ccccc3)C(C)(C)[S+]([O-])[C@@H]21 (stereo partly drawn) [β-CF3 CONH / α-C2 H5 / 1 / OBZ] | 11.2 µM | 
9 | Cc1ccc(S(=O)(=O)N[C@H]2C(=O)N3[C@@H](C(=O)OCc4ccccc4)C(C)(C)S(=O)(=O)[C@H]23)cc1 [6α-(TS)NH / 2 / OBZ] | 0.406 µM | 
10 | CC(C)(C)OC(=O)c1ccc(COC(=O)[C@@H]2N3C(=O)[C@H](NC(=O)C(F)(F)F)[C@H]3S(=O)(=O)C2(C)C)cc1 [6α-CF3 (CO)NH / 2 / OBZ(p-COOtBu)] | 0.187 µM | 
11 | C[C@@H](OC(=O)OCc1ccccc1)[C@H]1C(=O)N2[C@@H](C(=O)OCc3ccccc3)C(C)(C)S(=O)(=O)[C@H]12 [drawing 29 / 2 / OBZ] | 0.0997 µM | 
12 | CC1(C)[C@H](C(=O)OCc2ccccc2)N2C(=O)[C@H](OCc3ccccc3)[C@H]2S1(=O)=O [6α-OBZ / 2 / OBZ] | 9.31 µM | 
13 | CC1(C)[C@H](C(=O)OCc2ccccc2)N2C(=O)[C@@H](COC(=O)NCc3ccccc3)[C@H]2S1(=O)=O [6β-CH2 O(CO)NH(BZ) / 2 / OBZ] |  | IC50: 1.44 µM
14 | Cc1ccc(S(=O)(=O)C[C@H]2C(=O)N3[C@@H](C(=O)OCc4ccccc4)C(C)(C)S(=O)(=O)[C@H]23)cc1 [6α-(TS)CH2 / 2 / OBZ (2nd)] | 4.07 µM | 
15 | CC(OC(=O)NCc1ccccc1)[C@H]1C(=O)N2[C@@H](C(=O)OCc3ccccc3)C(C)(C)S(=O)(=O)[C@H]12 (some centres unmarked) [drawing 28 / 2 / OBZ] |  | IC50: 1.2 µM
16 | CC(C)(C)OC(=O)[C@@H]1CCCN1C(=O)[C@@H]1N2C(=O)[C@H](NC(=O)C(F)(F)F)[C@H]2S(=O)(=O)C1(C)C [6α-CF3 (CO)NH / 2 / drawing 31] | 40.2 µM | 
17 | CO[C@H]1C(=O)N2[C@@H](C(=O)OCc3ccc(C(=O)O)cc3)C(C)(C)S(=O)(=O)[C@H]12 [6α-OCH3 / 2 / OBZ(p-COOH)] | 5.03 µM | 
